{"source": "patent US9433596B2", "about": "“Pharmaceutical composition comprising N-acetyl-L-cysteine or its derivatives for treating anxiety disorder” (SNU R&DB FOUNDATION, priority 2010, dated 2016)", "key": {"Sprague-Dawley Rats [1]": {"system": "Sprague-Dawley Rats", "assay": "Fear memory renewal test, NAC administered immediately before the renewal test", "assay_type": "in vivo", "settings": "NAC 200 mg/kg peritoneally 2.5 hours before the renewal test on the 7th and 8th day, result on the 8th day after fear conditioning, vs control", "procedure": "Sprague-Dawley Rats (8-9 weeks old, from Samtaco, Korea) were maintained with free access to water and food with 12 hour dark/light cycles (lights off at 09:00 hrs). Group of three to six animals were used for each experiment. (26 in total) For fear conditioning, the rats were presented with a tone (2.8 kHz, 85 dB) co-terminating with an electrical shock (1.0 mA, 1 s) three times at an interval of 100 sec. The rats were returned to the cage 1 minute after the last shock has been applied. Three days after the conditioning, the exposure therapy was done in a chamber distinct from the conditioning chamber for both extinction training and tone tests. 10 tones were presented at an interval of 100 sec without shocks, during which the freezing responses were measured to determine the reduction of fear memories. Unpaired, two-tailed T-test was used to analyze the results. The renewal test was done on day 12 after the conditioning was completed. The same chamber and place as it was used for the fear conditioning were used for the renewal. […] The fear memory recalled was determined by measuring the freezing response as described before (Kim et al., 2007, PNAS 104 (52): 20955-960). The freezing was defined as immobility except for respiratory movements and was quantified by trained observers who were blind to the experimental groups. […]"}, "Sprague-Dawley Rats [2]": {"system": "Sprague-Dawley Rats", "assay": "Fear memory renewal test, NAC administered during extinction training (exposure therapy)", "assay_type": "in vivo", "settings": "NAC 200 mg/kg peritoneally once a day, days 3 to 5 after conditioning, 2.5 hours before exposure therapy, renewal tests on day 12 and day 21, vs saline control", "procedure": "Sprague-Dawley Rats (8-9 weeks old, from Samtaco, Korea) were maintained with free access to water and food with 12 hour dark/light cycles (lights off at 09:00 hrs). Group of three to six animals were used for each experiment. (26 in total) For fear conditioning, the rats were presented with a tone (2.8 kHz, 85 dB) co-terminating with an electrical shock (1.0 mA, 1 s) three times at an interval of 100 sec. The rats were returned to the cage 1 minute after the last shock has been applied. Three days after the conditioning, the exposure therapy was done in a chamber distinct from the conditioning chamber for both extinction training and tone tests. 10 tones were presented at an interval of 100 sec without shocks, during which the freezing responses were measured to determine the reduction of fear memories. Unpaired, two-tailed T-test was used to analyze the results. […] The negative control was only received physiological saline. The renewal test was done on day 12 after the conditioning was completed. The same chamber and place as it was used for the fear conditioning were used for the renewal. […] The fear memory recalled was determined by measuring the freezing response as described before (Kim et al., 2007, PNAS 104 (52): 20955-960). The freezing was defined as immobility except for respiratory movements and was quantified by trained observers who were blind to the experimental groups. […]"}, "Sprague-Dawley Rats [3]": {"system": "Sprague-Dawley Rats", "assay": "Fear memory renewal test, NAC administered one day before the renewal test", "assay_type": "in vivo", "settings": "NAC 200 mg/kg peritoneally on the 7th day after 4 days of extinction training, result on the 9th day after fear conditioning, vs control", "procedure": "Sprague-Dawley Rats (8-9 weeks old, from Samtaco, Korea) were maintained with free access to water and food with 12 hour dark/light cycles (lights off at 09:00 hrs). Group of three to six animals were used for each experiment. (26 in total) For fear conditioning, the rats were presented with a tone (2.8 kHz, 85 dB) co-terminating with an electrical shock (1.0 mA, 1 s) three times at an interval of 100 sec. The rats were returned to the cage 1 minute after the last shock has been applied. Three days after the conditioning, the exposure therapy was done in a chamber distinct from the conditioning chamber for both extinction training and tone tests. 10 tones were presented at an interval of 100 sec without shocks, during which the freezing responses were measured to determine the reduction of fear memories. Unpaired, two-tailed T-test was used to analyze the results. The renewal test was done on day 12 after the conditioning was completed. The same chamber and place as it was used for the fear conditioning were used for the renewal. The rats with the extinction training were placed in the conditioning chamber and were left undisturbed for 10 minutes. Then the fear memory was recalled by presenting the rats with a tone for 30 sec. […] The freezing was defined as immobility except for respiratory movements and was quantified by trained observers who were blind to the experimental groups. […]"}, "[4]": {"settings": "cited from earlier work"}, "[5]": {"settings": "general statement, no test described; cited from earlier work"}}, "data": [{"molecule": "CC(=O)N[C@@H](CS)C(=O)O", "note": "[NAC, N-acetyl-L-cysteine]", "values": [{"measurement": "renewal of the fear memory (freezing response)", "setting": "Sprague-Dawley Rats [1]; FIG. 6", "result": "the renewal of the fear memory was blocked"}, {"measurement": "renewal of the fear memory (freezing response)", "setting": "Sprague-Dawley Rats [1]; FIG. 6, listed as N-Acetyl-L-cysteine", "result": "prevented the return of fear-memories"}, {"measurement": "renewal of the fear memory (freezing response)", "setting": "Sprague-Dawley Rats [2]; FIG. 2", "result": "the renewal of the fear memory was blocked"}, {"measurement": "renewal of the fear memory (freezing response)", "setting": "Sprague-Dawley Rats [2]; FIG. 2, listed as N-Acetyl-L-cysteine", "result": "the return of fear-memories was prevented and the effect was long-lasted"}, {"measurement": "renewal of the fear memory (freezing response)", "setting": "Sprague-Dawley Rats [3]; FIG. 4", "result": "the renewal of the fear memory was blocked"}, {"measurement": "renewal of the fear memory (freezing response)", "setting": "Sprague-Dawley Rats [3]; FIG. 4, listed as N-Acetyl-L-cysteine", "result": "the return of fear-memories was prevented"}, {"measurement": "pKa", "setting": "[4]", "result": 3.24}, {"measurement": "blood-brain barrier penetration", "setting": "[5]", "result": "penetrate a blood-brain barrier"}]}]}
